# PubChem BioAssay (NCI)
#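 GI50 = concentration required for 50% inhibition of growth. TGI is the concentration that stops growth completely.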
# Legend:
# Assay in all cases: NCI tumour cell line growth inhibition, 384-well format
# A498 renal = system: A498 renal
# UO-31 renal = system: UO-31 renal
# RXF 393 renal = system: RXF 393 renal
# T-47D breast = system: T-47D breast
# SK-MEL-28 melanoma = system: SK-MEL-28 melanoma
# MDA-MB-435 melanoma = system: MDA-MB-435 melanoma
# CCRF-CEM leukemia = system: CCRF-CEM leukemia
# OVCAR-4 ovarian = system: OVCAR-4 ovarian
# NCI-H322M lung = system: NCI-H322M lung
# U251 glioblastoma = system: U251 glioblastoma
# OVCAR-5 ovarian = system: OVCAR-5 ovarian
# SK-OV-3 ovarian = system: SK-OV-3 ovarian
# OVCAR-8 ovarian = system: OVCAR-8 ovarian
# DU-145 prostate = system: DU-145 prostate
# ACHN renal = system: ACHN renal
# A549 NSCLC = system: A549 NSCLC
# HCC-2998 colon = system: HCC-2998 colon
# NCI/ADR-RES ovarian = system: NCI/ADR-RES ovarian
# BT-549 breast = system: BT-549 breast
# UACC-257 melanoma = system: UACC-257 melanoma
# RPMI-8226 leukemia = system: RPMI-8226 leukemia
# PC-3 prostate = system: PC-3 prostate
# NCI-H23 lung = system: NCI-H23 lung
# HT29 colon = system: HT29 colon
# SF-268 CNS = system: SF-268 CNS
# SK-MEL-5 melanoma = system: SK-MEL-5 melanoma
# TK-10 renal = system: TK-10 renal
# 786-0 renal = system: 786-0 renal
compound,measurement,setting,value
CS[C@@]1(C(=O)Nc2ccc3[nH]nc(-c4ccc(OC(C)C)nc4)c3c2)CCN(CC(=O)N2CC=C(c3ccc(-c4ncn(C)n4)cc3)CC2)C1,GI50,A498 renal,2520 nM
same,TGI,A498 renal,> 100000 nM
same,GI50,UO-31 renal,810 nM
same,TGI,UO-31 renal,> 100000 nM
same,GI50,RXF 393 renal,354 nM
same,TGI,RXF 393 renal,2200 nM
same,GI50,T-47D breast,5690 nM
same,TGI,T-47D breast,> 100000 nM
same,TGI,SK-MEL-28 melanoma,58.3 nM
same,GI50,MDA-MB-435 melanoma,96.3 nM
same,TGI,MDA-MB-435 melanoma,> 100000 nM
same,GI50,CCRF-CEM leukemia,5120 nM
same,TGI,CCRF-CEM leukemia,> 100000 nM
same,GI50,OVCAR-4 ovarian,1800 nM
same,TGI,OVCAR-4 ovarian,> 100000 nM
same,GI50,NCI-H322M lung,438 nM
same,TGI,NCI-H322M lung,> 100000 nM
same,GI50,U251 glioblastoma,1530 nM
same,TGI,U251 glioblastoma,> 100000 nM
same,GI50,OVCAR-5 ovarian,108 nM
same,TGI,OVCAR-5 ovarian,> 100000 nM
same,GI50,SK-OV-3 ovarian,17200 nM
same,TGI,SK-OV-3 ovarian,> 100000 nM
same,GI50,OVCAR-8 ovarian,5370 nM
same,TGI,OVCAR-8 ovarian,> 100000 nM
same,GI50,DU-145 prostate,61600 nM
same,TGI,DU-145 prostate,> 100000 nM
same,GI50,ACHN renal,2250 nM
same,TGI,ACHN renal,> 100000 nM
same,GI50,A549 NSCLC,302 nM
same,TGI,A549 NSCLC,> 100000 nM
same,GI50,HCC-2998 colon,24.2 nM
same,TGI,HCC-2998 colon,222 nM
same,GI50,NCI/ADR-RES ovarian,3770 nM
same,TGI,NCI/ADR-RES ovarian,> 100000 nM
same,GI50,BT-549 breast,2030 nM
same,TGI,BT-549 breast,> 100000 nM
same,GI50,UACC-257 melanoma,16.7 nM
same,TGI,UACC-257 melanoma,97.6 nM
same,GI50,RPMI-8226 leukemia,536 nM
same,TGI,RPMI-8226 leukemia,2440 nM
same,GI50,PC-3 prostate,18800 nM
same,TGI,PC-3 prostate,> 100000 nM
same,GI50,NCI-H23 lung,17.1 nM
same,TGI,NCI-H23 lung,136 nM
same,GI50,HT29 colon,43.1 nM
same,TGI,HT29 colon,> 100000 nM
same,GI50,SF-268 CNS,> 100000 nM
same,TGI,SF-268 CNS,> 100000 nM
same,GI50,SK-MEL-5 melanoma,58.9 nM
same,TGI,SK-MEL-5 melanoma,1730 nM
same,GI50,TK-10 renal,561 nM
same,TGI,TK-10 renal,> 100000 nM
same,GI50,786-0 renal,1770 nM
same,TGI,786-0 renal,> 100000 nM
